Experiment [1] deals with T1, AfGDH (Aspergillus flavus FAD-dependent glucose dehydrogenase, FADGDH) (Aspergillus flavus, UniProt B8MX95).
T1 construct: gene F9C07_464; residues 24-593, secretion signal peptide (1-22) removed; codon-optimised synthetic gene in pET30C, E. coli Origami2 (DE3); nonglycosylated; monomer
T1 sequence (B8MX95 24-593): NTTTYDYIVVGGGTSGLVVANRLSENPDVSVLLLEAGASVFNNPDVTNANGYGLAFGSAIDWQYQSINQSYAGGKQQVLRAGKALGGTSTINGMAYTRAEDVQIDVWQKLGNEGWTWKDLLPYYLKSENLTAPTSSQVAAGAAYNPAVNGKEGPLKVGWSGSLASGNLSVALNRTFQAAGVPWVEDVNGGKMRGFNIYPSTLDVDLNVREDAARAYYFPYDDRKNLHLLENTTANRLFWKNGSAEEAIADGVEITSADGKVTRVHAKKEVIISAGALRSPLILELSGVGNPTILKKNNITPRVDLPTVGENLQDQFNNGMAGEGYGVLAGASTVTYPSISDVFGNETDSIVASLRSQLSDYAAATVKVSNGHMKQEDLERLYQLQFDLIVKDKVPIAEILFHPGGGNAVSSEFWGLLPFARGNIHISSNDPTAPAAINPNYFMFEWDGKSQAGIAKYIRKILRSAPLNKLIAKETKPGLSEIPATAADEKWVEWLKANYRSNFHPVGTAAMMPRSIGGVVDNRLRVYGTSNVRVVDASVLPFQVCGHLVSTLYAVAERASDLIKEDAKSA
The experiment in a line: PMS/DCIP reduction, absorbance at […] nm; FAD reduction spectrum. Format: biochemical. The settings on record: 200 mM D-glucose, 0.6 mM PMS, 0.06 mM DCIP, 10 mM potassium phosphate pH 6.5, 25 °C.

The target of experiment [2] is T1, AfGDH (Aspergillus flavus FAD-dependent glucose dehydrogenase, FADGDH). The experiment in a line: X-ray crystal structure, […] Å. In kind it is binding. The conditions noted are these: co-purified cofactor, refined as reduced form; pH 6.5; also in 4YNU.

Consider `OC[C@H]1OC(O)[C@H](O)[C@@H](O)[C@@H]1O` (stereo partly drawn) [D-glucose], for which the specific activity result in experiment [1] is given as “The addition of glucose to the wild type enzyme resulted in the disappearance of the peaks”.
Turning to `Cc1cc2c(cc1C)N(C[C@H](O)[C@H](O)[C@H](O)COP(=O)(O)OP(=O)(O)OC[C@H]1O[C@@H](n3cnc4c(N)ncnc43)[C@H](O)[C@@H]1O)c1[nH]c(=O)[nH]c(=O)c1N2` [reduced FAD], the “X-ray crystal structure, 1.78 Å” value in experiment [2] is “The bound FAD molecule was refined as a reduced FAD cofactor (FADH2)”.
